This note sets out measurements from ChEMBL document CHEMBL3039007, “Structure-based identification of OATP1B1/3 inhibitors” (Mol Pharmacol, 2013).

For series [1], the target named is T1, Solute carrier organic anion transporter family member 1B1 (Homo sapiens, UniProt Q9Y6L6).
T1 sequence (Q9Y6L6 whole entry): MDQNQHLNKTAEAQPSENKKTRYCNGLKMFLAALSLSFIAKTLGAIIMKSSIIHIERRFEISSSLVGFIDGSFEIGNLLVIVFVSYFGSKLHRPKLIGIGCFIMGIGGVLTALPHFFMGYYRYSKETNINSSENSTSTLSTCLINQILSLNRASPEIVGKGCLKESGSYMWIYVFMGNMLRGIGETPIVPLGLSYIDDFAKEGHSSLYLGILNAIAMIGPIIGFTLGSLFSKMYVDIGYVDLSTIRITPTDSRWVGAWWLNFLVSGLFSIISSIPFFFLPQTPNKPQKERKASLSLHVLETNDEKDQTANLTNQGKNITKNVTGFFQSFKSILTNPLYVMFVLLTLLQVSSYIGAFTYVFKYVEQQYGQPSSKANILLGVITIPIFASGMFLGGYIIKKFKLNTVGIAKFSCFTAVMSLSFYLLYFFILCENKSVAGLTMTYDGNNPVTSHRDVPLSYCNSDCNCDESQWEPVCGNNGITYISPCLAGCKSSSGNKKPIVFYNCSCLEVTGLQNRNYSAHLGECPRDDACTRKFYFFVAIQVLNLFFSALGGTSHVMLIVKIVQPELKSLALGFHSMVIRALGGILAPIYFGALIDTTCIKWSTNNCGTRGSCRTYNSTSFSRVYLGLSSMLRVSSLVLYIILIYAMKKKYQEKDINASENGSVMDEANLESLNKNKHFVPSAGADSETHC
Conditions: chinese hamster, cho, 10 µM.

The target of series [2] is T2, Solute carrier organic anion transporter family member 1B3 (Homo sapiens, UniProt Q9NPD5).
T2 sequence (Q9NPD5 whole entry): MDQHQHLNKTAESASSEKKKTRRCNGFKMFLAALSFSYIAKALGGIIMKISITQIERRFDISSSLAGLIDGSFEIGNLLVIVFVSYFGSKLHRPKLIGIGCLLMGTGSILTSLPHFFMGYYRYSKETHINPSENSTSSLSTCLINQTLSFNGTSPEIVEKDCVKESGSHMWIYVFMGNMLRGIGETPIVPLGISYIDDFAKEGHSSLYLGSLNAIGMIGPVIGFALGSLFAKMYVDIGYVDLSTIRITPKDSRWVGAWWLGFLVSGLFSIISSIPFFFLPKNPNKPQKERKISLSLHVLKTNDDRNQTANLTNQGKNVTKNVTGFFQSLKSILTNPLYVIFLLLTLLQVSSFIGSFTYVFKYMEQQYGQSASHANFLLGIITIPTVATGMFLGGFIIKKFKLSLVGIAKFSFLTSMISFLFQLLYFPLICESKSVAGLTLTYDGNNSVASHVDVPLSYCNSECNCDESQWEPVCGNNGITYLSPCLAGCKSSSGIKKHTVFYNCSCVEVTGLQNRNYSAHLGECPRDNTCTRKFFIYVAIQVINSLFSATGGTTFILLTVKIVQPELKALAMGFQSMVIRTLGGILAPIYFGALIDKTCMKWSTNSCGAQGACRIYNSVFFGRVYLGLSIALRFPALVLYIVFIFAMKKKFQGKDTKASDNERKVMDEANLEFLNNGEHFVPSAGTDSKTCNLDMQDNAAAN
Conditions: chinese hamster, cho, 10 µM.

For the compound `COc1cc(/C=C/C(=O)O)ccc1O` [FERULATE], the residual activity turned out to be 60.24% in series [1] and 82.81% in series [2].
The matching figures for `CCCCC[C@@H](O)[C@H]1C(=O)O[C@H](C)[C@@H](O)/C=C/C=C/C=C/C=C/C=C(\C)[C@@H](O)C[C@H](O)C[C@H](O)C[C@H](O)C[C@H](O)C[C@H](O)C[C@@H]1O` [FILIPIN]: 96.46% and 93.93%.
The matching figures for `Cl.O=C(COc1ccc(Cl)cc1)N1CCN(Cc2ccc3c(c2)OCO3)CC1` [FIPEXIDE HYDROCHLORIDE]: 103.1% and 95%.
The matching figures for `Oc1ccc2c(c1)O[C@H](c1ccc(O)c(O)c1)[C@@H](O)C2` [FISETINIDOL]: 74.52% and 95.23%.
Consider `O=c1c(O)c(-c2ccc(O)c(O)c2)oc2cc(O)ccc12` [FISETIN], for which the residual activity in series [1] is given as 56.32%; in series [2] it was 108.5%.
The matching figures for `COC(=O)C[C@H]1C(C)(C)[C@@H](OC(C)=O)[C@@H]2CC3=C4CC(=O)O[C@@H](c5ccoc5)[C@]4(C)CC[C@@H]3[C@@]1(C)C2=O` [FISSINOLIDE]: 27.44% and 51.76%.
As for `O=C1CC(c2ccccc2)Oc2ccccc21` (stereo not given) [FLAVANONE], the residual activity worked out at 76.99% in series [1] and 79.68% in series [2].
The matching figures for `COc1cc(O)c(C(=O)/C=C/c2ccccc2)c(OC)c1` [FLAVOKAWAIN B]: 141.4% and 125.2%.
As to `O=c1c(O)c(-c2ccccc2)oc2ccccc12` [FLAVONOL], the results for the residual activity in series [1] and in series [2] were 133.5% and 102.6%, respectively.
As for `CCC(=O)c1c(O)cc(O)cc1O` [FLOPROPIONE], the residual activity in series [1] was 69.54%; in series [2] it was 107.4%.
The matching figures for `O=c1[nH]c(=O)n([C@H]2C[C@H](O)[C@@H](CO)O2)cc1F` [FLOXURIDINE]: 116.3% and 109.2%.
Consider `OC(Cn1cncn1)(Cn1cncn1)c1ccc(F)cc1F` [FLUCONAZOLE], for which the residual activity in series [1] is given as 86.64%; in series [2], 106.5%.
The matching figures for `CC(=O)OCC(=O)[C@@]1(O)CC[C@H]2[C@@H]3CCC4=CC(=O)CC[C@]4(C)[C@@]3(F)[C@@H](O)C[C@@]21C` [FLUDROCORTISONE ACETATE]: 36.29% and 71.2%.
The matching figures for `O=C(O)c1ccccc1Nc1cccc(C(F)(F)F)c1` [FLUFENAMIC ACID]: 211.3% and 64.03%.
On to `CC1CCc2cc(F)cc3c(=O)c(C(=O)O)cn1c23` (stereo not given) [FLUMEQUINE], for which the residual activity is reported as 74.99% in series [1] and 107% in series [2].
With `C[C@@H]1C[C@H]2[C@@H]3C[C@H](F)C4=CC(=O)C=C[C@]4(C)[C@@]3(F)[C@@H](O)C[C@]2(C)[C@@]1(O)C(=O)COC(=O)C(C)(C)C` [FLUMETHASONE PIVALATE], the residual activity in series [1] came to 98.41%; in series [2] it was 107.9%.
For `C[C@@H]1C[C@H]2[C@@H]3C[C@H](F)C4=CC(=O)C=C[C@]4(C)[C@@]3(F)[C@@H](O)C[C@]2(C)[C@@]1(O)C(=O)CO` [FLUMETHASONE], the residual activity in series [1] came to 84.89%; in series [2], 135.8%.
The matching figures for `Cl.Cl.Fc1ccc(C(c2ccc(F)cc2)N2CCN(C/C=C/c3ccccc3)CC2)cc1` [FLUNARIZINE HYDROCHLORIDE]: 117.4% and 102.7%.
With `CC1(C)O[C@@H]2C[C@H]3[C@@H]4C[C@H](F)C5=CC(=O)C=C[C@]5(C)[C@H]4[C@@H](O)C[C@]3(C)[C@]2(C(=O)CO)O1` [FLUNISOLIDE], the residual activity in series [1] amounted to 55.07%; in series [2], 77.49%.
The matching figures for `CC(=O)[C@@]1(O)CC[C@H]2[C@@H]3C[C@H](C)C4=CC(=O)C=C[C@]4(C)[C@@]3(F)[C@@H](O)C[C@@]21C` [FLUOROMETHOLONE]: 85.71% and 105.7%.
The matching figures for `O=c1[nH]cc(F)c(=O)[nH]1` [FLUOROURACIL]: 86.84% and 91.17%.
The matching figures for `CNCCC(Oc1ccc(C(F)(F)F)cc1)c1ccccc1` (stereo not given) [FLUOXETINE]: 55.32% and 77.22%.
For `CC1(C)O[C@@H]2C[C@H]3[C@@H]4C[C@H](F)C5=CC(=O)CC[C@]5(C)[C@H]4[C@@H](O)C[C@]3(C)[C@]2(C(=O)CO)O1` [FLURANDRENOLIDE], the results for the residual activity in series [1] and in series [2] were 129.2% and 99.16%, respectively.
The matching figures for `CC(C(=O)O)c1ccc(-c2ccccc2)c(F)c1` (stereo not given) [FLURBIPROFEN]: 227% and 98.28%.
The matching figures for `CC(C)C(=O)Nc1ccc([N+](=O)[O-])c(C(F)(F)F)c1` [FLUTAMIDE]: 130.9% and 133.6%.
As for `Nc1nc2ncc(CNc3ccc(C(=O)N[C@@H](CCC(=O)O)C(=O)O)cc3)nc2c(=O)[nH]1` [FOLIC ACID], the residual activity in series [1] turned out to be 98.4%; in series [2], 109.7%.
Consider `C[C@]12CCC(=O)C(O)=C1CC[C@@H]1[C@@H]2CC[C@]2(C)C(=O)CC[C@@H]12` [FORMESTANE], for which the results for the residual activity in series [1] and in series [2] were 81.74% and 106.1%, respectively.
As to `COc1ccc(-c2coc3cc(O)ccc3c2=O)cc1` [FORMONONETIN], the results for the residual activity in series [1] and in series [2] were 169.8% and 114.7%, respectively.
Take `O=C([O-])P(=O)([O-])[O-].[Na+].[Na+].[Na+]` [FOSCARNET SODIUM]: the residual activity was found to be 113% in series [1] and 110.8% in series [2].
In the case of `O=C(O)c1ccccc1OP(=O)(O)O` [FOSFOSAL], the residual activity stood at 68.68% in series [1] and 92.75% in series [2].
For the compound `COc1cc2ccc(=O)oc2c(O)c1O` [FRAXETIN], the residual activity in series [1] came to 68.87%; in series [2], 106.2%.
The matching figures for `COc1cc2ccc(=O)oc2c(OC)c1OC` [FRAXIDIN METHYL ETHER]: 92.39% and 92.79%.
The matching figures for `C[C@H]1C(=O)CC[C@@H]2[C@]1(C)CC[C@H]1[C@@]2(C)CC[C@@]2(C)[C@@H]3CC(C)(C)CC[C@]3(C)CC[C@]12C` [FRIEDELINE]: 112% and 90.31%.
The matching figures for `O=C1OCCN1/N=C/c1ccc([N+](=O)[O-])o1` [FURAZOLIDONE]: 91.17% and 94.52%.
As for `NS(=O)(=O)c1cc(C(=O)O)c(NCc2ccco2)cc1Cl` [FUROSEMIDE], the results for the residual activity in series [1] and in series [2] were 86.58% and 90.27%, respectively.
The matching figures for `CC(=O)O[C@H]1C[C@@]2(C)[C@@H](C[C@@H](O)[C@H]3[C@@]4(C)CC[C@@H](O)[C@@H](C)[C@@H]4CC[C@@]32C)/C1=C(\CCC=C(C)C)C(=O)O` [FUSIDIC ACID]: 39.52% and 58.34%.
The matching figures for `CC[N+](CC)(CC)CCOc1cccc(OCC[N+](CC)(CC)CC)c1OCC[N+](CC)(CC)CC.[I-].[I-].[I-]` [GALLAMINE TRIETHIODIDE]: 91.38% and 79.25%.
The matching figures for `O=C(O)c1cc(O)c(O)c(O)c1` [GALLIC ACID]: 67.94% and 91.35%.
Regarding `CC(C)=CCC[C@]1(C)C=Cc2c(O)c3c(c(CC=C(C)C)c2O1)O[C@]12C(=C[C@@H]4C[C@H]1C(C)(C)O[C@@]2(C/C=C(/C)C(=O)O)C4=O)C3=O` [GAMBOGIC ACID], the residual activity stood at 75.57% in series [1] and 65.8% in series [2].
Consider `NCC(O)CC(=O)O` (stereo not drawn) [GAMMA-AMINO-BETA-HYDROXYBUTYRIC ACID], for which the results for the residual activity in series [1] and in series [2] were 120.5% and 106.5%, respectively.

One may read the residual activity as the signal under treatment as a percentage of the control signal.
